The text below walks through data of US5198418A, “Substituted alkylamides of teicoplanin compounds” (Gruppo Lepetit S.p.A., priority 1987, dated 1993).

For assay [1], the system named is S. pyogenes C 203. As to the kind of experiment: in vivo activity in mice infected with S. pyogenes.
Assay [2] concerns Staph. aureus Tour. As to the kind of experiment: in vitro antibacterial activity, MIC. It is filed as cell-based. To be noted: inoculum about 10^4 CFU/ml, 18-24 h at 37° C. The method, then:
(§1) ISOSENSITEST broth, culture medium (Oxoid) and Todd-Hewitt broth, culture medium (Difco) are used for growing staphylococci and streptococci, respectively. Broth cultures are diluted so that the final inoculum is about 10^4 colony forming units/ml (CFU/ml).

Assay [3] deals with Strepto. pyogenes C 203. Kind of assay: in vitro antibacterial activity, MIC. It is filed as cell-based. To be noted: inoculum about 10^4 CFU/ml, 18-24 h at 37° C. The method, then:
as §1

In assay [4] the test system is Staph. haemoliticus 602. As to the kind of experiment: in vitro antibacterial activity, MIC. The assay is classed as cell-based. To be noted: inoculum about 10^4 CFU/ml, 18-24 h at 37° C. The method, then: as §1
In assay [5] the test system is Strepto. pneumoniae UC 41. Kind of assay: in vitro antibacterial activity, MIC. The assay is classed as cell-based. To be noted: inoculum about 10^4 CFU/ml, 18-24 h at 37° C. The procedure:
as §1

The test system of assay [6] is Strepto. faecalis ATCC 7080. Kind of assay: in vitro antibacterial activity, MIC. It is filed as cell-based. To be noted: inoculum about 10^4 CFU/ml, 18-24 h at 37° C. The method, then: as §1
Assay [7] concerns Staph. epidermidis ATCC 12228. As to the kind of experiment: in vitro antibacterial activity, MIC. The assay is classed as cell-based. To be noted: inoculum about 10^4 CFU/ml, 18-24 h at 37° C. The procedure: as §1
For assay [8], the system named is Proteus vulgaris X 19H ATCC 881. As to the kind of experiment: in vitro antibacterial activity, MIC. It is filed as cell-based. As to conditions: inoculum about 10^4 CFU/ml, 18-24 h at 37° C. The method, then: as §1
The subject of assay [9] is Pseudomonas aeruginosa ATCC 10145. Kind of assay: in vitro antibacterial activity, MIC. It is filed as cell-based. As to conditions: inoculum about 10^4 CFU/ml, 18-24 h at 37° C. The method, then:
as §1

Assay [10] relates to E. coli SKF 12140. As to the kind of experiment: in vitro antibacterial activity, MIC. The assay is classed as cell-based. As to conditions: inoculum about 10^4 CFU/ml, 18-24 h at 37° C. The method, then: as §1

The term ED50 denotes the dose at which the effect has come halfway, by size or by number of responders. For `CCCCC(NC(=O)C1NC(=O)C2NC(=O)C(NC(=O)C3NC(=O)C4NC(=O)C(Cc5ccc(c(Cl)c5)Oc5cc3cc(c5O)Oc3ccc(cc3Cl)C2O)NC(=O)C(NC(=O)OC(C)(C)C)c2ccc(O)c(c2)Oc2cc(O)cc4c2)c2ccc(O)c(c2)-c2c(O)cc(O)cc21)C(=O)NCCS` (centres unmarked) [Compound 20], the ED50 is recorded as over 300 mg/kg in [1] (route of administration p.o.) and 8.70 mg/kg in assay [1] (route of administration s.c).

As usually defined, the MIC is the least concentration at which growth counts as inhibited. A high value points to weaker potency. With `Cl.NC1C(=O)NC2Cc3ccc(c(Cl)c3)Oc3cc4cc(c3O)Oc3ccc(cc3Cl)C(O)C3NC(=O)C(NC(=O)C4NC(=O)C(NC2=O)c2cc(O)cc(c2)Oc2cc1ccc2O)c1ccc(O)c(c1)-c1c(O)cc(O)cc1C(C(=O)NC(CCC(=O)N1CCSCC1)C(=O)N1CCSCC1)NC3=O` (centres unmarked) [Compound 22], the MIC in assay [2] was 0.12 µg/mL; in assay [3], 0.12 µg/mL; in assay [4] it was 0.12 µg/mL; in assay [5] it was 0.12 µg/mL; in assay [6], 0.12 µg/mL; in assay [7], 0.06 µg/mL. For the same compound, the MIC in [8], in [9] and in [10] was over 128 µg/mL in each case.
